Values of other authors, collected in PubChem BioAssay AID1259409 (Chemical Carcinogenesis Research Information System (CCRIS), 2018).

Test system: rodent chemically induced tumor inhibition, incidence and multiplicity
Test: CCRIS tumor inhibitor studies
Settings: Route [Inhibitor]: ORAL, Promoter: NONE USED
Source text: The CCRIS database contains chemical records with carcinogenicity, mutagenicity, tumor promotion, and tumor inhibition test results. It was developed by the National Cancer Institute (NCI). Data are derived from studies cited in primary journals, current awareness tools, NCI reports, and other sources. Test results have been reviewed by experts in carcinogenesis and mutagenesis.
CCRIS provides historical information from the years 1985 - 2011. It is no longer updated.
This is an archive assay for CCRIS tumor inhibitor studies.

## ClC(Cl)Cl
Carcinogen: 1,2-DIMETHYLHYDRAZINE DIHYDROCHLORIDE, 306-37-6, Dose [Inhibitor]: 900 MG/L IN DRINKING WATER BEGINNING 7 D POST CARCINOGEN DOSE AND CONTINUING FOR 39 WK (STUDY DURATION: 39 WK), Species: RAT, Strain/Sex: F344/MALE, Target Tissue: Type of Lesion: GASTROINTESTINAL TRACT: TUMOR, Dose [Carcinogen]: 200 MG/KG ONCE
  tumour outcome (control, treated, inhibition, significance): 14/39 (36%), 5/39 (13%), 64%, not calculated
Carcinogen: 1,2-DIMETHYLHYDRAZINE DIHYDROCHLORIDE, 306-37-6, Dose [Inhibitor]: 1800 MG/L IN DRINKING WATER BEGINNING 7 D POST CARCINOGEN DOSE AND CONTINUING FOR 39 WK (STUDY DURATION: 39 WK), Species: RAT, Strain/Sex: F344/MALE, Target Tissue: Type of Lesion: GASTROINTESTINAL TRACT: TUMOR, Dose [Carcinogen]: 200 MG/KG ONCE
  tumour outcome (control, treated, inhibition, significance): 14/39 (36%), 5/40 (13%), 64%, not calculated
Carcinogen: ETHYLNITROSOUREA, 759-73-9, Dose [Inhibitor]: 0, 1800 PPM IN DRINKING WATER BEGINNING AT 5 WK OF AGE AND CONTINUING TO 51 WK OF AGE (STUDY DURATION: 52 WK), Species: MOUSE, Strain/Sex: CD-1/FEMALE, Target Tissue: Type of Lesion: LUNG: ADENOMA, Dose [Carcinogen]: 5 MG/KG ONCE AT 15 D OF AGE
  tumour outcome (control, treated, inhibition, significance): 10/36 (28%), 7/38 (18%), 36%, not calculated
Carcinogen: ETHYLNITROSOUREA, 759-73-9, Dose [Inhibitor]: 0, 1800 PPM IN DRINKING WATER BEGINNING AT 5 WK OF AGE AND CONTINUING TO 51 WK OF AGE (STUDY DURATION: 52 WK), Species: MOUSE, Strain/Sex: CD-1/FEMALE, Target Tissue: Type of Lesion: LUNG: ADENOMA, Dose [Carcinogen]: 20 MG/KG ONCE AT 15 D OF AGE
  tumour outcome (control, treated, inhibition, significance): 25/39 (64%), 23/45 (51%), 20%, not calculated
Carcinogen: ETHYLNITROSOUREA, 759-73-9, Dose [Inhibitor]: 0, 1800 PPM IN DRINKING WATER BEGINNING AT 5 WK OF AGE AND CONTINUING TO 51 WK OF AGE (STUDY DURATION: 52 WK), Species: MOUSE, Strain/Sex: CD-1/FEMALE, Target Tissue: Type of Lesion: LUNG: CARCINOMA, Dose [Carcinogen]: 5 MG/KG ONCE AT 15 D OF AGE
  tumour outcome (control, treated, inhibition, significance): 1/36 (3%), 2/38 (5%), -67%, not calculated
Carcinogen: ETHYLNITROSOUREA, 759-73-9, Dose [Inhibitor]: 0, 1800 PPM IN DRINKING WATER BEGINNING AT 5 WK OF AGE AND CONTINUING TO 51 WK OF AGE (STUDY DURATION: 52 WK), Species: MOUSE, Strain/Sex: CD-1/FEMALE, Target Tissue: Type of Lesion: LUNG: CARCINOMA, Dose [Carcinogen]: 20 MG/KG ONCE AT 15 D OF AGE
  tumour outcome (control, treated, inhibition, significance): 2/39 (5%), 5/45 (11%), -120%, not calculated
Carcinogen: ETHYLNITROSOUREA, 759-73-9, Dose [Inhibitor]: 0, 1800 PPM IN DRINKING WATER BEGINNING AT 5 WK OF AGE AND CONTINUING TO 51 WK OF AGE (STUDY DURATION: 52 WK), Species: MOUSE, Strain/Sex: CD-1/MALE, Target Tissue: Type of Lesion: LIVER: ADENOMA, Dose [Carcinogen]: 5 MG/KG ONCE AT 15 D OF AGE
  tumour outcome (control, treated, inhibition, significance): 8/39 (21%), 1/25 (4%), 81%, p<0.05
Carcinogen: ETHYLNITROSOUREA, 759-73-9, Dose [Inhibitor]: 0, 1800 PPM IN DRINKING WATER BEGINNING AT 5 WK OF AGE AND CONTINUING TO 51 WK OF AGE (STUDY DURATION: 52 WK), Species: MOUSE, Strain/Sex: CD-1/MALE, Target Tissue: Type of Lesion: LIVER: ADENOMA, Dose [Carcinogen]: 20 MG/KG ONCE AT 15 D OF AGE
  tumour outcome (control, treated, inhibition, significance): 22/30 (73%), 12/29 (41%), 44%, p<0.05
Carcinogen: ETHYLNITROSOUREA, 759-73-9, Dose [Inhibitor]: 0, 1800 PPM IN DRINKING WATER BEGINNING AT 5 WK OF AGE AND CONTINUING TO 51 WK OF AGE (STUDY DURATION: 52 WK), Species: MOUSE, Strain/Sex: CD-1/MALE, Target Tissue: Type of Lesion: LIVER: CARCINOMA, Dose [Carcinogen]: 5 MG/KG ONCE AT 15 D OF AGE
  tumour outcome (control, treated, inhibition, significance): 2/39 (5%), 0/25 (0%), 100%, not calculated
Carcinogen: ETHYLNITROSOUREA, 759-73-9, Dose [Inhibitor]: 0, 1800 PPM IN DRINKING WATER BEGINNING AT 5 WK OF AGE AND CONTINUING TO 51 WK OF AGE (STUDY DURATION: 52 WK), Species: MOUSE, Strain/Sex: CD-1/MALE, Target Tissue: Type of Lesion: LIVER: CARCINOMA, Dose [Carcinogen]: 20 MG/KG ONCE AT 15 D OF AGE
  tumour outcome (control, treated, inhibition, significance): 10/30 (33%), 5/29 (17%), 48%, p<0.1
Carcinogen: ETHYLNITROSOUREA, 759-73-9, Dose [Inhibitor]: 0, 1800 PPM IN DRINKING WATER BEGINNING AT 5 WK OF AGE AND CONTINUING TO 51 WK OF AGE (STUDY DURATION: 52 WK), Species: MOUSE, Strain/Sex: CD-1/MALE, Target Tissue: Type of Lesion: LUNG: ADENOMA, Dose [Carcinogen]: 5 MG/KG ONCE AT 15 D OF AGE
  tumour outcome (control, treated, inhibition, significance): 11/39 (29%), 10/25 (40%), -38%, not calculated
Carcinogen: ETHYLNITROSOUREA, 759-73-9, Dose [Inhibitor]: 0, 1800 PPM IN DRINKING WATER BEGINNING AT 5 WK OF AGE AND CONTINUING TO 51 WK OF AGE (STUDY DURATION: 52 WK), Species: MOUSE, Strain/Sex: CD-1/MALE, Target Tissue: Type of Lesion: LUNG: ADENOMA, Dose [Carcinogen]: 20 MG/KG ONCE AT 15 D OF AGE
  tumour outcome (control, treated, inhibition, significance): 15/30 (50%), 12/29 (41%), 18%, not calculated
Carcinogen: ETHYLNITROSOUREA, 759-73-9, Dose [Inhibitor]: 0, 1800 PPM IN DRINKING WATER BEGINNING AT 5 WK OF AGE AND CONTINUING TO 51 WK OF AGE (STUDY DURATION: 52 WK), Species: MOUSE, Strain/Sex: CD-1/MALE, Target Tissue: Type of Lesion: LUNG: CARCINOMA, Dose [Carcinogen]: 5 MG/KG ONCE AT 15 D OF AGE
  tumour outcome (control, treated, inhibition, significance): 1/39 (3%), 1/25 (4%), -33%, not calculated
Carcinogen: ETHYLNITROSOUREA, 759-73-9, Dose [Inhibitor]: 0, 1800 PPM IN DRINKING WATER BEGINNING AT 5 WK OF AGE AND CONTINUING TO 51 WK OF AGE (STUDY DURATION: 52 WK), Species: MOUSE, Strain/Sex: CD-1/MALE, Target Tissue: Type of Lesion: LUNG: CARCINOMA, Dose [Carcinogen]: 20 MG/KG ONCE AT 15 D OF AGE
  tumour outcome (control, treated, inhibition, significance): 2/30 (7%), 4/29 (14%), -100%, not calculated

## O=c1ccc2ccccc2o1
Carcinogen: 7,12-DIMETHYLBENZ(A)ANTHRACENE, 57-97-6, Dose [Inhibitor]: 0.034 MMOL/G IN DIET BEGINNING 1 D PRIOR TO CARCINOGEN DOSE AND CONTINUING FOR 8 D (STUDY DURATION: 23 WK), Species: RAT, Strain/Sex: SPRAGUE-DAWLEY/FEMALE, Target Tissue: Type of Lesion: MAMMARY GLAND: TUMOR, Dose [Carcinogen]: 12 MG IN 1.0 ML OLIVE OIL ONCE
  tumour outcome (control, treated, inhibition, significance): 86%, 31%, 64%, p<0.01
Carcinogen: 7,12-DIMETHYLBENZ[A]ANTHRACENE, 57-97-6, Dose [Inhibitor]: 0.068 MMOL/G IN DIET BEGINNING 7 D PRIOR TO CARCINOGEN DOSE AND CONTINUING FOR 8 D (STUDY DURATION: 23 WK), Species: RAT, Strain/Sex: SPRAGUE-DAWLEY/FEMALE, Target Tissue: Type of Lesion: MAMMARY GLAND: TUMOR, Dose [Carcinogen]: 12 MG IN 1.0 ML OLIVE OIL
  tumour outcome (control, treated, inhibition, significance): 86%, 14%, 84%, p<0.01,
Carcinogen: BENZO[A]PYRENE, 50-32-8, Dose [Inhibitor]: 0.068 MMOL/G IN DIET FOR 5 WK BEGINNING 1 WK PRIOR TO CARCINOGEN TREATMENT (STUDY DURATION: 21 WK), Species: MOUSE, Strain/Sex: ICR/FEMALE, Target Tissue: Type of Lesion: FORESTOMACH: TUMOR, Dose [Carcinogen]: 1 MG IN 0.2 ML CORN OIL, 2/WK FOR 4 WK
  tumour outcome (control, treated, inhibition, significance): 100%, 61%, 39%, p<0.05

## OC1C(O)C(O)C(O)C(O)C1O (stereo not drawn)
Carcinogen: 7,12-DIMETHYLBENZ[A]ANTHRACENE, 57-97-6, Dose [Inhibitor]: 0, 15 MILLIMOLAR IN DRINKING WATER FOR 47 WK BEGINNING 2 WK PRIOR TO CARCINOGEN DOSE (STUDY DURATION: 47 WK), Species: RAT, Strain/Sex: SPRAGUE-DAWLEY/FEMALE, Target Tissue: Type of Lesion: MAMMARY GLAND: TUMOR, Dose [Carcinogen]: 5 MG IN 1 ML CORN OIL ONCE
  tumour outcome (control, treated, inhibition, significance): 37/40 (93%), 30/40 (75%), 19%, p<0.05
